# Test results from patent US20240000871A1, “Lactobacillus gasseri capable of alleviating and treating hyperuricemia” (Jiangnan University, priority 2020, published 2024).
# System: fecal short-chain fatty acids
# Experiment: Fecal short-chain fatty acids of mice with hyperuricemia
# Format: in vivo
# Details: feces at the end of the experiment
# Experimental: 24 healthy male KM mice with the weight of 38 to 44 g were randomly divided into four groups after a week of acclimatization, namely a control group, a hyperuricemia model group, an L. gasseri CCFM1133 intervention group (CCFM1133) and an allopurinol intervention group (allopurinol). Except the control group, 500 mg/kg BW hypoxanthine was given to the other groups every day by intragastric administration, and 100 mg/kg BW oteracil potassium was intraperitoneally injected to the other groups every day. At 1 h before processing with hypoxanthine and oteracil potassium, 0.4 mL of 30 g/L sucrose (a control solvent) was given to the control group and the hyperuricemia model group, L. gasseri CCFM1133 bacterial suspension (30 g/L sucrose solution containing L. gasseri CCFM1133 thallus) with the concentration of 1×10^9 CFU/mouse was given to the L. gasseri CCFM1133 intervention group, and 5 mg/kg BW allopurinol was given to the allopurinol group. […]
# The short-chain fatty acids were separated by using an Rtx-Wax column. The short-chain fatty acids (acetic acid, propionic acid, isobutyric acid, butyric acid, isovaleric acid and valeric acid) were detected in a full scanning mode (the mass-to-charge ratio scanning range is 33 to 110). Characteristic ions of analyte standards were selected for quantitative analysis.
compound,measurement,value
Oc1ncnc2[nH]ncc12 [allopurinol],"Effect on fecal short-chain fatty acid levels (acetic, propionic, isobutyric, butyric, isovaleric and valeric acid)",does not have much of the effect
